From PubChem BioAssay (NCI)
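Results reflect a 48-hour exposure of cells in 96-well plates to compound at five concentrations. GI50 = concentration required for 50% inhibition of growth. Definition used: TGI = concentration required for complete inhibition of growth.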

Legend:
Assay in all cases: NCI-60 cell line screen, 48 h
OVCAR-8 ovarian = test system: OVCAR-8 ovarian
IGROV1 ovarian = test system: IGROV1 ovarian
OVCAR-4 ovarian = test system: OVCAR-4 ovarian
ACHN renal = test system: ACHN renal
NCI-H522 lung = test system: NCI-H522 lung
SNB-19 CNS = test system: SNB-19 CNS
HCC-2998 colon = test system: HCC-2998 colon
CAKI-1 renal = test system: CAKI-1 renal
HCT-15 colon = test system: HCT-15 colon
SK-MEL-28 melanoma = test system: SK-MEL-28 melanoma
KM12 colon = test system: KM12 colon
SF-268 CNS = test system: SF-268 CNS
HT29 colon = test system: HT29 colon
RXF 393 renal = test system: RXF 393 renal
A498 renal = test system: A498 renal
SN12C renal = test system: SN12C renal
A549 NSCLC = test system: A549 NSCLC
SW-620 colon = test system: SW-620 colon
T-47D breast = test system: T-47D breast
DU-145 prostate = test system: DU-145 prostate
SR leukemia = test system: SR leukemia
TK-10 renal = test system: TK-10 renal
NCI-H460 lung = test system: NCI-H460 lung
SF-295 CNS = test system: SF-295 CNS
SF-539 CNS = test system: SF-539 CNS
NCI/ADR-RES ovarian = test system: NCI/ADR-RES ovarian
BT-549 breast = test system: BT-549 breast
HOP-62 NSCLC = test system: HOP-62 NSCLC
SK-MEL-2 melanoma = test system: SK-MEL-2 melanoma
SK-OV-3 ovarian = test system: SK-OV-3 ovarian
CCRF-CEM leukemia = test system: CCRF-CEM leukemia
PC-3 prostate = test system: PC-3 prostate
K-562 leukemia = test system: K-562 leukemia
U251 CNS = test system: U251 CNS
MCF7 breast = test system: MCF7 breast
HOP-92 NSCLC = test system: HOP-92 NSCLC
HL-60(TB) leukemia = test system: HL-60(TB) leukemia
MDA-MB-231 breast = test system: MDA-MB-231 breast
MDA-MB-435 = test system: MDA-MB-435
UACC-257 melanoma = test system: UACC-257 melanoma
OVCAR-5 ovarian = test system: OVCAR-5 ovarian
MALME-3M melanoma = test system: MALME-3M melanoma
COLO 205 colon = test system: COLO 205 colon
EKVX NSCLC = test system: EKVX NSCLC
RPMI-8226 leukemia = test system: RPMI-8226 leukemia
LOX IMVI melanoma = test system: LOX IMVI melanoma
786-0 renal = test system: 786-0 renal
NCI-H226 lung = test system: NCI-H226 lung
NCI-H23 lung = test system: NCI-H23 lung
HS 578T breast = test system: HS 578T breast
OVCAR-3 ovarian = test system: OVCAR-3 ovarian
UACC-62 melanoma = test system: UACC-62 melanoma
M14 melanoma = test system: M14 melanoma
SK-MEL-5 melanoma = test system: SK-MEL-5 melanoma
MOLT-4 leukemia = test system: MOLT-4 leukemia
HCT-116 colon = test system: HCT-116 colon
UO-31 renal = test system: UO-31 renal
SNB-75 CNS = test system: SNB-75 CNS

Compound `CS(=O)(=O)c1ccc(-c2cnc(N)c(C(=O)Nc3ccccc3)n2)cc1` has a GI50 (OVCAR-8 ovarian) of over 45 µM, a TGI (OVCAR-8 ovarian) of over 100 µM and a GI50 (IGROV1 ovarian) of 5.17 µM. For the same compound, the TGI (IGROV1 ovarian) was over 100 µM, the GI50 (OVCAR-4 ovarian) was 9.86 µM and the TGI (OVCAR-4 ovarian) was over 100 µM. It also gave a GI50 (ACHN renal) of 3.92 µM, a TGI (ACHN renal) of 29.6 µM and a GI50 (NCI-H522 lung) of over 54.8 µM. It also gave a TGI (NCI-H522 lung) of over 100 µM, a GI50 (SNB-19 CNS) of over 81.5 µM and a TGI (SNB-19 CNS) of over 100 µM. It also gave a GI50 (HCC-2998 colon) of 3.9 µM, a TGI (HCC-2998 colon) of over 100 µM and a GI50 (CAKI-1 renal) of 4.96 µM. For the same compound, the TGI (CAKI-1 renal) was over 55.8 µM, the GI50 (HCT-15 colon) was 5.92 µM and the TGI (HCT-15 colon) was over 100 µM. The GI50 (SK-MEL-28 melanoma) was 98.6 µM, the TGI (SK-MEL-28 melanoma) was over 100 µM and the GI50 (KM12 colon) was over 100 µM. The TGI (KM12 colon) was over 100 µM, the GI50 (SF-268 CNS) was 25 µM and the TGI (SF-268 CNS) was over 100 µM. For the same compound, the GI50 (HT29 colon) was 7.5 µM, the TGI (HT29 colon) was over 100 µM and the GI50 (RXF 393 renal) was 2.69 µM. The TGI (RXF 393 renal) was over 50.1 µM, the GI50 (A498 renal) was 6.59 µM and the TGI (A498 renal) was over 100 µM. For the same compound, the GI50 (SN12C renal) was 6.81 µM, the TGI (SN12C renal) was over 100 µM and the GI50 (A549 NSCLC) was over 24.2 µM. The TGI (A549 NSCLC) was over 100 µM, the GI50 (SW-620 colon) was over 100 µM and the TGI (SW-620 colon) was over 100 µM. The GI50 (T-47D breast) was over 100 µM, the TGI (T-47D breast) was over 100 µM and the GI50 (DU-145 prostate) was 8.35 µM. The TGI (DU-145 prostate) was over 100 µM, the GI50 (SR leukemia) was 2.39 µM and the TGI (SR leukemia) was over 100 µM. For the same compound, the GI50 (TK-10 renal) was 16.9 µM, the TGI (TK-10 renal) was over 100 µM and the GI50 (NCI-H460 lung) was 10.7 µM. For the same compound, the TGI (NCI-H460 lung) was over 100 µM, the GI50 (SF-295 CNS) was 24.2 µM and the TGI (SF-295 CNS) was over 100 µM. It also gave a GI50 (SF-539 CNS) of 6.81 µM, a TGI (SF-539 CNS) of over 100 µM and a GI50 (NCI/ADR-RES ovarian) of 22.6 µM. For the same compound, the TGI (NCI/ADR-RES ovarian) was over 100 µM, the GI50 (BT-549 breast) was 7.87 µM and the TGI (BT-549 breast) was 40.8 µM. It also gave a GI50 (HOP-62 NSCLC) of 18.8 µM, a TGI (HOP-62 NSCLC) of over 100 µM and a GI50 (SK-MEL-2 melanoma) of 7.87 µM. The TGI (SK-MEL-2 melanoma) was over 96 µM, the GI50 (SK-OV-3 ovarian) was 6.85 µM and the TGI (SK-OV-3 ovarian) was over 100 µM. It also gave a GI50 (CCRF-CEM leukemia) of 4 µM, a TGI (CCRF-CEM leukemia) of over 100 µM and a GI50 (PC-3 prostate) of over 100 µM. The TGI (PC-3 prostate) was over 100 µM, the GI50 (K-562 leukemia) was 5.34 µM and the TGI (K-562 leukemia) was over 100 µM. It also gave a GI50 (U251 CNS) of 31.7 µM, a TGI (U251 CNS) of over 100 µM and a GI50 (MCF7 breast) of 10.8 µM. For the same compound, the TGI (MCF7 breast) was over 100 µM, the GI50 (HOP-92 NSCLC) was 24.3 µM and the TGI (HOP-92 NSCLC) was over 100 µM. For the same compound, the GI50 (HL-60(TB) leukemia) was 5.62 µM, the TGI (HL-60(TB) leukemia) was over 100 µM and the GI50 (MDA-MB-231 breast) was over 67.6 µM. For the same compound, the TGI (MDA-MB-231 breast) was over 100 µM, the GI50 (MDA-MB-435) was over 100 µM and the TGI (MDA-MB-435) was over 100 µM. For the same compound, the GI50 (UACC-257 melanoma) was over 100 µM, the TGI (UACC-257 melanoma) was over 100 µM and the GI50 (OVCAR-5 ovarian) was over 100 µM. For the same compound, the TGI (OVCAR-5 ovarian) was over 100 µM, the GI50 (MALME-3M melanoma) was over 100 µM and the TGI (MALME-3M melanoma) was over 100 µM. The GI50 (COLO 205 colon) was over 43 µM, the TGI (COLO 205 colon) was over 100 µM and the GI50 (EKVX NSCLC) was over 92.3 µM. For the same compound, the TGI (EKVX NSCLC) was over 100 µM, the GI50 (RPMI-8226 leukemia) was over 100 µM and the TGI (RPMI-8226 leukemia) was over 100 µM. It also gave a GI50 (LOX IMVI melanoma) of 4.2 µM, a TGI (LOX IMVI melanoma) of over 100 µM and a GI50 (786-0 renal) of 3.71 µM. It also gave a TGI (786-0 renal) of over 100 µM, a GI50 (NCI-H226 lung) of over 100 µM and a TGI (NCI-H226 lung) of over 100 µM. The GI50 (NCI-H23 lung) was 4.84 µM, the TGI (NCI-H23 lung) was over 100 µM and the GI50 (HS 578T breast) was over 100 µM. The TGI (HS 578T breast) was over 100 µM, the GI50 (OVCAR-3 ovarian) was 15.7 µM and the TGI (OVCAR-3 ovarian) was over 100 µM. The GI50 (UACC-62 melanoma) was over 51.9 µM, the TGI (UACC-62 melanoma) was over 100 µM and the GI50 (M14 melanoma) was 20.7 µM. It also gave a TGI (M14 melanoma) of over 100 µM, a GI50 (SK-MEL-5 melanoma) of 28.7 µM and a TGI (SK-MEL-5 melanoma) of over 100 µM. For the same compound, the GI50 (MOLT-4 leukemia) was 3.4 µM, the TGI (MOLT-4 leukemia) was over 100 µM and the GI50 (HCT-116 colon) was 11.4 µM. For the same compound, the TGI (HCT-116 colon) was over 100 µM, the GI50 (UO-31 renal) was 5.45 µM and the TGI (UO-31 renal) was over 42.8 µM. The GI50 (SNB-75 CNS) was 7.22 µM and the TGI (SNB-75 CNS) was over 100 µM.
